Measured values: patent US7495027B2, “3-aryl-4-hydroxyfuranone compounds and the human and animal health use thereof” (Wyeth, priority 2003, dated 2009)
pIC50: −log10 of the molar value. Like-named read-outs stand apart in the source and are kept apart here.

Legend:
[1] = molecular target: T1, S. aureus UDP-N-acetylglucosamine enolpyruvoyl transferase, MurA (Staphylococcus aureus, UniProt P84058); assay: Inhibitory activity against MurA (S. aureus); assay type: biochemical; conditions: (S) S. aureus enzyme
T1 sequence (P84058 1-421): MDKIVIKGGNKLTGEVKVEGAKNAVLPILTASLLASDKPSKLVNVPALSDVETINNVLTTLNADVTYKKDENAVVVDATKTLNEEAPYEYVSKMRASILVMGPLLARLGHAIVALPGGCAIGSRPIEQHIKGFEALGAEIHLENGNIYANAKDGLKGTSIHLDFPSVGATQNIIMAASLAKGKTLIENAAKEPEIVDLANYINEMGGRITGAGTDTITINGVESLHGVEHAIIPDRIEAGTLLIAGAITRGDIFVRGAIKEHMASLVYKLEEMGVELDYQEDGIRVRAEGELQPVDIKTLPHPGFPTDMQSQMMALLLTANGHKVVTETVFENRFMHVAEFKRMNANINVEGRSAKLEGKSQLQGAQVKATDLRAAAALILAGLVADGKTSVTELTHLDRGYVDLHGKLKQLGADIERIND
Procedure: Evaluation of the Inhibitory Activity of Test Compounds Against Enzymes which Catalyze Bacterial Cell Wall Biosynthesis
S. aureus and E. coli UDP-N-acetylglucosamine enolpyruvoyl transferase, MurA
Preparation of Enzyme Solution:
The enzyme solution is prepared by admixing the following: 50 mM Tris/HCl pH 8.0, […] 1 M Tris, 5 mM DTT, […] 1 M DTT, 20% Glycerol 4 ml 50% Glycerol, add water to 10 ml.
Preparation of Stop Solution:
The stop solution is prepared by mixing the following: 4.2% ammonium molybdate in 4N HCl, 8.4 g/200 ml 4N HCl, 0.045% malachite green, 90 mg/200 ml water, then stir 1 part ammonium molybdate with 2 parts malachite green for 30 min.
A procedure similar to that described by C. T. Walsh in Biochemistry 33, 10646-10651, is used to evaluate the inhibitory activity of test compounds against MurA, the enzyme which catalyzes the first step of bacterial cell wall biosynthesis. Experiments are performed by adding a solution of test compound (in a mixture of dimethylsulfoxide and water) and an enzyme solution to a well. After a pre-incubation period of 10 mintues at 37° C., Tris/BME buffer and assay buffer are added. A start point optical density (OD0) reading is taken at 340 nm immediately following the addition of assay buffer. After incubation for 1 hr at 37° C., the stop solution is added and the color is allowed to develop for 30 minutes. An end point OD1 reading at […] is then taken. […]

[2] = system: larvae of blowfly, Lucilia sericata; assay: whole plant or invertebrate; conditions: dose rate of 20 ppm, Lucilia sericata larvae on treated filter paper with bovine serum
Procedure: Comparative Evaluation of the Efficacy of a 3-Aryl-4-hydroxyfuranone Compound Against Blowfly Larvae
In this evaluation, filter paper discs are treated with an acetone solution of test compound and allowed to dry. Bovine serum and newly emerged larvae of blowfly, Lucilia sericata, are added to the treated filter paper. Mortality is assessed at 24 h and 48 h. When more than one evaluation is performed, the data are averaged.

[3] = assessed at 24 h, read-out: % Mortality 24 h
[4] = assessed at 48 h, read-out: % Mortality 48 h

| SMILES | pIC50 [1] | melting point | other results |
| --- | --- | --- | --- |
| Cc1ccccc1-c1ccc(/C=C2\OC(=O)C(c3cc(Cl)cc(Cl)c3)=C2O)cc1C [Example 29] | 5.34 | – | – |
| CN(C)c1ccc(/C=C2\OC(=O)C(c3ccc(Cl)cc3)=C2O)c2ccccc12 [Example 78] | < 4.20 | – | – |
| O=C1O/C(=C\c2ccc(C(F)(F)F)cc2)C(O)=C1c1ccc(-c2ccccc2)cc1 [R=H, R1=4-(biphenyl), R2=4-CF3—C6H4] | – | – | mortality at 20 ppm [2, 3]: 0%; mortality at 20 ppm [2, 4]: 0% |
| O=C1O/C(=C\c2ccc(-c3ccccc3)cc2)C(O)=C1c1cccs1 [Example 144] | < 4.14 | 213 °C (dec.) | – |
| O=C1O/C(=C\C2CCCCC2)C(O)=C1c1ccc(-c2ccccc2)cc1 [Example 100] | – | 204 to 207 °C | – |
| O=C1O/C(=C\c2ccc(-c3ccccc3)cc2)C(O)=C1c1cccc(C(F)(F)F)c1 [Example 10] | – | 240 to 241.5 °C | – |
| Cc1cc(/C=C2\OC(=O)C(c3cccc(Cl)c3)=C2O)ccc1-c1ccccc1C(F)(F)F [Example 26] | 5.06 | – | – |
| COc1cc(/C=C2\OC(=O)C(c3cc(Cl)cc(Cl)c3)=C2O)ccc1-c1ccccc1C(F)(F)F [Example 33] | 5.10 | – | – |
| COc1cc(/C=C2\OC(=O)C(c3cccc(Cl)c3)=C2O)ccc1-c1ccccc1Cl [Example 18] | 4.86 | – | – |
| O=C1O/C(=C\c2ccc(-c3ccccc3)cc2)C(O)=C1c1csc2ccccc12 [Example 143] | < 4.20 | 270 °C | – |
| O=C1O/C(=C\c2ccc3ccccc3c2)C(O)=C1c1ccc(Cl)cc1 [Example 54] | – | 284 to 286 °C | – |
| O=C1O/C(=C\c2cc(C(F)(F)F)ccc2Cl)C(O)=C1c1ccc(N2CCOCC2)c(F)c1 [Example 142] | – | – | MurA IC50 [1]: >25 (S) μg/mL |
| COC(=O)c1ccc(C2=C(O)/C(=C/c3cccc4ccccc34)OC2=O)cc1 [Example 74] | < 4.17 | 242 to 244 °C | – |
| O=C1O/C(=C\c2ccc(N3CCOCC3)c3ccccc23)C(O)=C1c1cccc(Cl)c1 [Example 37] | < 4.24 | – | – |
| COc1ccc(/C=C2\OC(=O)C(c3cc(Cl)cc(Cl)c3)=C2O)c2ccccc12 [Example 36] | 4.84 | – | – |
| O=C1O/C(=C\C2CCCCC2)C(O)=C1c1ccc(Cl)cc1 [Example 15] | – | 200 to 205 °C | – |
| O=C1O/C(=C\c2ccc3ccccc3c2)C(O)=C1c1cccc2ccccc12 [Example 56] | – | 235 to 237 °C | – |
| O=C1O/C(=C\c2ccc(Cl)cc2)C(O)=C1c1ccc(-c2ccccc2)c(F)c1 [Example 138] | 4.75 | 255 to 258 °C | – |
| O=C1O/C(=C\c2cccc3ccccc23)C(O)=C1c1cc(Cl)cc(Cl)c1 [Example 70] | 4.41 | 244 to 245 °C | – |

| SMILES | pIC50 [1] | melting point | other results |
| --- | --- | --- | --- |
| O=C1OC(=Cc2cccc3ccccc23)C(O)=C1c1ccc(C=NO)cc1 (mixture of isomers) [Example 73] | – | – | MurA IC50 [1]: >25 (S) μg/mL |
| O=C1O/C(=C\c2ccccc2-c2ccc(Cl)c(Cl)c2)C(O)=C1c1ccc(Cl)c(Cl)c1 [Example 141] | 5.20 | – | – |
| O=C1O/C(=C\c2ccc(-c3ccccc3)cc2)C(O)=C1c1ccc(Cl)cc1 [Example 53] | – | 282 to 285 °C | – |
| O=C1O/C(=C\c2cccc3ccccc23)C(O)=C1c1cccc2ccccc12 [Example 47] | – | 216 to 218 °C | – |
| O=C1O/C(=C\c2ccc3ccccc3c2)C(O)=C1c1ccc2ccccc2c1 [Example 52] | – | 285 to 290 °C | – |
| O=C1O/C(=C\c2ccc(-c3ccccc3)cc2)C(O)=C1c1cccc(Cl)c1 [Example 69] | – | 248 to 250 °C | – |
| CN(C)c1ccc(/C=C2\OC(=O)C(c3cc(Cl)cc(Cl)c3)=C2O)c2ccccc12 [Example 79] | 4.48 | – | – |
| O=C1O/C(=C\c2cccc3ccccc23)C(O)=C1c1ccc(-c2ccccc2)cc1 [R=H, R1=4-biphenyl, R2=1-naphthyl] | – | – | mortality at 20 ppm [2, 3]: 100%; mortality at 20 ppm [2, 4]: 100% |
| COc1cc(/C=C2\OC(=O)C(c3cccc(Cl)c3)=C2O)ccc1-c1ccccc1C [Example 22] | 4.67 | – | – |
| COc1cc(/C=C2\OC(=O)C(c3cc(Cl)cc(Cl)c3)=C2O)ccc1-c1ccccc1Cl [Example 21] | 4.98 | – | – |
| COc1cc(/C=C2\OC(=O)C(c3cccc(Cl)c3)=C2O)ccc1-c1ccccc1C(F)(F)F [Example 32] | 4.67 | – | – |
| Cc1cc(C=C2OC(=O)C(c3cc(Cl)cc(Cl)c3)=C2O)ccc1-c1ccccc1Cl [Example 31] | – | – | MurA IC50 [1]: 2 (S) μg/mL |
| O=C1O/C(=C\c2cccc3ccccc23)C(O)=C1c1cccc(C=NO)c1 [Example 77] | – | – | MurA IC50 [1]: >25 (S) μg/mL |
| O=C1O/C(=C\c2cccnc2)C(O)=C1c1ccc(-c2ccccc2)cc1 [Example 101] | – | 252 to 255 °C | – |
| COc1ccccc1-c1ccc(/C=C2\OC(=O)C(c3cccc(Cl)c3)=C2O)cc1C [Example 23] | 4.48 | – | – |
| O=C1O/C(=C\c2ccc(-c3cccc(C(F)(F)F)c3)cc2)C(O)=C1c1cccc(C(F)(F)F)c1 | – | – | % Mortality 24 h ([2]; assessed at 24 h): 0%; % Mortality 48 h ([2]; assessed at 48 h): 0% |
| CCOC(=O)c1cccc(C2=C(O)C(=Cc3cccc4ccccc34)OC2=O)c1 [Example 75] | – | – | MurA IC50 [1]: >25 (S) μg/mL |
| Cc1cc(/C=C2\OC(=O)C(c3cc(Cl)cc(Cl)c3)=C2O)ccc1-c1ccccc1OS(C)(=O)=O [Example 39] | – | – | MurA IC50 [1]: 15 (S) μg/mL |
| CN(C)c1ccc(C=C2OC(=O)C(c3cc(Cl)cc(Cl)c3)=C2O)c2ccccc12 [Example 80] | – | – | MurA IC50 [1]: 15 (S) μg/mL |

| SMILES | pIC50 [1] | melting point | other results |
| --- | --- | --- | --- |
| COc1ccccc1-c1ccc(/C=C2\OC(=O)C(c3ccc(Cl)c(Cl)c3)=C2O)cc1OC [Example 20] | < 4.27 | – | – |
| Cc1cc(/C=C2\OC(=O)C(c3cccc(Cl)c3)=C2O)ccc1-c1ccccc1Cl [Example 30] | 5.15 | – | – |
| COc1ccc(C=C2OC(=O)C(c3cccc(Cl)c3)=C2O)c2ccccc12 [Example 35] | – | – | MurA IC50 [1]: >25 (S) μg/mL |
| Cc1ccccc1-c1ccc(/C=C2\OC(=O)C(c3cccc(Cl)c3)=C2O)cc1C [Example 28] | 4.61 | – | – |
| O=C1O/C(=C\c2cccc(-c3cc(Cl)cc(Cl)c3)c2)C(O)=C1c1cc(Cl)cc(Cl)c1 [Example 136] | 5.68 | – | – |
| O=C1O/C(=C\c2ccc(Cl)cc2)C(O)=C1c1ccc2ccccc2c1 [Example 43] | – | 243 to 250 °C | – |
| O=C1O/C(=C\c2ccc(-c3cc(Cl)cc(Cl)c3)cc2)C(O)=C1c1cc(Cl)cc(Cl)c1 | – | – | mortality at 20 ppm [2, 3]: 0%; mortality at 20 ppm [2, 4]: 0% |
| O=C1O/C(=C\c2ccc(N3CCOCC3)c(F)c2)C(O)=C1c1cc(Cl)cc(Cl)c1 [Example 34] | – | – | MurA IC50 [1]: 22 (S) μg/mL |
| COc1ccccc1-c1ccc(/C=C2\OC(=O)C(c3cc(Cl)cc(Cl)c3)=C2O)cc1OC [Example 19] | 4.44 | – | – |
| COc1ccccc1-c1ccc(/C=C2\OC(=O)C(c3cc(Cl)cc(Cl)c3)=C2O)cc1C [Example 24] | 4.81 | – | – |
| O=C1O/C(=C\c2ccccc2-c2cccc(Cl)c2)C(O)=C1c1cccc(Cl)c1 [Example 140] | 4.57 | – | – |
| COc1cc(/C=C2\OC(=O)C(c3cc(Cl)cc(Cl)c3)=C2O)ccc1-c1ccccc1C [Example 25] | 4.96 | – | – |
| O=C1O/C(=C\c2ccc(-c3ccccc3)cc2)C(O)=C1c1cc(Cl)cc(Cl)c1 [Example 67] | – | 279 to 280 °C | – |
| O=C1O/C(=C\c2ccc(-c3ccc(Cl)cc3)cc2)C(O)=C1c1ccc(Cl)cc1 [R=H, R1=4-Cl—C6H4, R2=4-(4′-Cl-biphenyl)] | – | – | mortality at 20 ppm [2, 3]: 0%; mortality at 20 ppm [2, 4]: 0% |
| Cc1ccc(/C=C2\OC(=O)C(c3ccc(-c4ccccc4)cc3)=C2O)s1 [Example 104] | – | 235 to 240 °C | – |
| O=C1O/C(=C\c2ccc(N3CCOCC3)c3ccccc23)C(O)=C1c1cc(Cl)cc(Cl)c1 [Example 38] | < 4.27 | – | – |
| CN(C)c1ccc(/C=C2\OC(=O)C(c3ccc(C(F)(F)F)cc3)=C2O)c2ccccc12 [Example 81] | < 4.23 | – | – |
| Cc1cc(/C=C2\OC(=O)C(c3cc(Cl)cc(Cl)c3)=C2O)ccc1-c1ccccc1C(F)(F)F [Example 27] | 5.39 | – | – |
| O=C1O/C(=C\c2ccccc2-c2ccc(Cl)cc2)C(O)=C1c1ccc(Cl)cc1 [Example 137] | 4.50 | – | – |
